Assay results from PubChem BioAssay (NCI).
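Cells were grown in 96-well plates and exposed to each compound for 48 hours at five concentrations; endpoints were interpolated linearly between bracketing concentrations, or set to the highest concentration if not reached. The concentration for 50% growth inhibition is given as GI50. At the TGI there is no net growth.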

Key:
Assay in all cases: NCI anticancer screen, dose series, 48 h
786-0 renal = test system: 786-0 renal
A549 NSCLC = test system: A549 NSCLC
ACHN renal = test system: ACHN renal
BT-549 breast = test system: BT-549 breast
CAKI-1 renal = test system: CAKI-1 renal
CCRF-CEM leukemia = test system: CCRF-CEM leukemia
COLO 205 colon = test system: COLO 205 colon
DU-145 prostate = test system: DU-145 prostate
EKVX NSCLC = test system: EKVX NSCLC
HCC-2998 colon = test system: HCC-2998 colon
HCT-116 colon = test system: HCT-116 colon
HCT-15 colon = test system: HCT-15 colon
HL-60(TB) leukemia = test system: HL-60(TB) leukemia
HOP-62 NSCLC = test system: HOP-62 NSCLC
HOP-92 NSCLC = test system: HOP-92 NSCLC
HS 578T breast = test system: HS 578T breast
HT29 colon = test system: HT29 colon
IGROV1 ovarian = test system: IGROV1 ovarian
K-562 leukemia = test system: K-562 leukemia
KM12 colon = test system: KM12 colon
LOX IMVI melanoma = test system: LOX IMVI melanoma
M14 melanoma = test system: M14 melanoma
MALME-3M melanoma = test system: MALME-3M melanoma
MCF7 breast = test system: MCF7 breast
MDA-MB-231 breast = test system: MDA-MB-231 breast
MDA-MB-435 = test system: MDA-MB-435
MOLT-4 leukemia = test system: MOLT-4 leukemia
NCI-H226 lung = test system: NCI-H226 lung
NCI-H23 lung = test system: NCI-H23 lung
NCI-H460 lung = test system: NCI-H460 lung
NCI-H522 lung = test system: NCI-H522 lung
NCI/ADR-RES ovarian = test system: NCI/ADR-RES ovarian
OVCAR-3 ovarian = test system: OVCAR-3 ovarian
OVCAR-4 ovarian = test system: OVCAR-4 ovarian
OVCAR-5 ovarian = test system: OVCAR-5 ovarian
OVCAR-8 ovarian = test system: OVCAR-8 ovarian
PC-3 prostate = test system: PC-3 prostate
RPMI-8226 leukemia = test system: RPMI-8226 leukemia
RXF 393 renal = test system: RXF 393 renal
SF-268 CNS = test system: SF-268 CNS
SF-295 CNS = test system: SF-295 CNS
SF-539 CNS = test system: SF-539 CNS
SK-MEL-2 melanoma = test system: SK-MEL-2 melanoma
SK-MEL-28 melanoma = test system: SK-MEL-28 melanoma
SK-MEL-5 melanoma = test system: SK-MEL-5 melanoma
SK-OV-3 ovarian = test system: SK-OV-3 ovarian
SN12C renal = test system: SN12C renal
SNB-19 CNS = test system: SNB-19 CNS
SNB-75 CNS = test system: SNB-75 CNS
SR leukemia = test system: SR leukemia
SW-620 colon = test system: SW-620 colon
T-47D breast = test system: T-47D breast
TK-10 renal = test system: TK-10 renal
U251 CNS = test system: U251 CNS
UACC-257 melanoma = test system: UACC-257 melanoma
UACC-62 melanoma = test system: UACC-62 melanoma
UO-31 renal = test system: UO-31 renal

With `CC(C)[C@@](O)(c1ccc2cc(OC(F)F)c(OC(F)F)cc2c1)c1cn[nH]n1` the GI50 (786-0 renal) was 17.2 µM, the TGI (786-0 renal) was 34.1 µM and the GI50 (A549 NSCLC) was 17.6 µM. The TGI (A549 NSCLC) was 38.7 µM, the GI50 (ACHN renal) was 22.6 µM and the TGI (ACHN renal) was 83.2 µM. It also gave a GI50 (BT-549 breast) of 15.2 µM, a TGI (BT-549 breast) of 29.5 µM and a GI50 (CAKI-1 renal) of 14.6 µM. It also gave a TGI (CAKI-1 renal) of 38.2 µM, a GI50 (CCRF-CEM leukemia) of 19.2 µM and a TGI (CCRF-CEM leukemia) of 55.3 µM. For the same compound, the GI50 (COLO 205 colon) was 17.2 µM, the TGI (COLO 205 colon) was 35.1 µM and the GI50 (DU-145 prostate) was 16.7 µM. It also gave a TGI (DU-145 prostate) of 39.2 µM, a GI50 (EKVX NSCLC) of 11 µM and a TGI (EKVX NSCLC) of 29.9 µM. The GI50 (HCC-2998 colon) was 18.2 µM, the TGI (HCC-2998 colon) was 35.8 µM and the GI50 (HCT-116 colon) was 17.2 µM. The TGI (HCT-116 colon) was 32 µM, the GI50 (HCT-15 colon) was 15.3 µM and the TGI (HCT-15 colon) was 37.4 µM. For the same compound, the GI50 (HL-60(TB) leukemia) was 21.9 µM, the TGI (HL-60(TB) leukemia) was 66.6 µM and the GI50 (HOP-62 NSCLC) was 15.3 µM. It also gave a TGI (HOP-62 NSCLC) of 30.7 µM, a GI50 (HOP-92 NSCLC) of 13.8 µM and a TGI (HOP-92 NSCLC) of 30.2 µM. It also gave a GI50 (HS 578T breast) of 21.1 µM, a TGI (HS 578T breast) of 73.7 µM and a GI50 (HT29 colon) of 18.6 µM. It also gave a TGI (HT29 colon) of 41.6 µM, a GI50 (IGROV1 ovarian) of 18.7 µM and a TGI (IGROV1 ovarian) of 63.8 µM. The GI50 (K-562 leukemia) was 19.3 µM, the TGI (K-562 leukemia) was 55.3 µM and the GI50 (KM12 colon) was 17.5 µM. For the same compound, the TGI (KM12 colon) was 39.2 µM, the GI50 (LOX IMVI melanoma) was 15.8 µM and the TGI (LOX IMVI melanoma) was 29.2 µM. For the same compound, the GI50 (M14 melanoma) was 16 µM, the TGI (M14 melanoma) was 33.4 µM and the GI50 (MALME-3M melanoma) was 16.8 µM. For the same compound, the TGI (MALME-3M melanoma) was 39.2 µM, the GI50 (MCF7 breast) was 16.6 µM and the TGI (MCF7 breast) was 37.7 µM. For the same compound, the GI50 (MDA-MB-231 breast) was 18.5 µM, the TGI (MDA-MB-231 breast) was 39.1 µM and the GI50 (MDA-MB-435) was 16.4 µM. The TGI (MDA-MB-435) was 33.3 µM, the GI50 (MOLT-4 leukemia) was 21.7 µM and the TGI (MOLT-4 leukemia) was 70.7 µM. The GI50 (NCI-H226 lung) was 22.3 µM, the TGI (NCI-H226 lung) was 58.2 µM and the GI50 (NCI-H23 lung) was 14.3 µM. For the same compound, the TGI (NCI-H23 lung) was 32.2 µM, the GI50 (NCI-H460 lung) was 18 µM and the TGI (NCI-H460 lung) was 37.4 µM. The GI50 (NCI-H522 lung) was 14.3 µM, the TGI (NCI-H522 lung) was 32.3 µM and the GI50 (NCI/ADR-RES ovarian) was 18.5 µM. The TGI (NCI/ADR-RES ovarian) was 50.9 µM, the GI50 (OVCAR-3 ovarian) was 16.3 µM and the TGI (OVCAR-3 ovarian) was 37.1 µM. For the same compound, the GI50 (OVCAR-4 ovarian) was 17.1 µM, the TGI (OVCAR-4 ovarian) was 86 µM and the GI50 (OVCAR-5 ovarian) was 21.7 µM. For the same compound, the TGI (OVCAR-5 ovarian) was 55.6 µM, the GI50 (OVCAR-8 ovarian) was 21.9 µM and the TGI (OVCAR-8 ovarian) was 53.6 µM. For the same compound, the GI50 (PC-3 prostate) was 14.9 µM, the TGI (PC-3 prostate) was 36 µM and the GI50 (RPMI-8226 leukemia) was 17.3 µM. It also gave a TGI (RPMI-8226 leukemia) of 61.4 µM, a GI50 (RXF 393 renal) of 15.4 µM and a TGI (RXF 393 renal) of 29.8 µM. The GI50 (SF-268 CNS) was 18.6 µM, the TGI (SF-268 CNS) was 49.4 µM and the GI50 (SF-295 CNS) was 14.2 µM. The TGI (SF-295 CNS) was 29.7 µM, the GI50 (SF-539 CNS) was 16.4 µM and the TGI (SF-539 CNS) was 32.3 µM. For the same compound, the GI50 (SK-MEL-2 melanoma) was 17.4 µM, the TGI (SK-MEL-2 melanoma) was 34.3 µM and the GI50 (SK-MEL-28 melanoma) was 17.1 µM. For the same compound, the TGI (SK-MEL-28 melanoma) was 33.9 µM, the GI50 (SK-MEL-5 melanoma) was 14.4 µM and the TGI (SK-MEL-5 melanoma) was 27.5 µM. It also gave a GI50 (SK-OV-3 ovarian) of 16.2 µM, a TGI (SK-OV-3 ovarian) of 38.1 µM and a GI50 (SN12C renal) of 17.1 µM. The TGI (SN12C renal) was 35.2 µM, the GI50 (SNB-19 CNS) was 20.8 µM and the TGI (SNB-19 CNS) was 51.2 µM. For the same compound, the GI50 (SNB-75 CNS) was 15.1 µM, the TGI (SNB-75 CNS) was 40.4 µM and the GI50 (SR leukemia) was 17.3 µM. The TGI (SR leukemia) was 44.7 µM, the GI50 (SW-620 colon) was 19.7 µM and the TGI (SW-620 colon) was 43.2 µM. It also gave a GI50 (T-47D breast) of 13.4 µM, a TGI (T-47D breast) of 53.1 µM and a GI50 (TK-10 renal) of 14.9 µM. The TGI (TK-10 renal) was 32.9 µM, the GI50 (U251 CNS) was 17.4 µM and the TGI (U251 CNS) was 34.7 µM. The GI50 (UACC-257 melanoma) was 22.8 µM, the TGI (UACC-257 melanoma) was 48.5 µM and the GI50 (UACC-62 melanoma) was 15.1 µM. It also gave a TGI (UACC-62 melanoma) of 31 µM, a GI50 (UO-31 renal) of 11.6 µM and a TGI (UO-31 renal) of 26.4 µM.
